The text below walks through data of patent publication US10954214B2 (Janssen Pharmaceutica NV, priority 2016, dated 2021).

For test [1], the system named is IL6 secretion by TMD8 ABC-DLBCL cells. Put plainly: Human IL6 Mesoscale assay (TMD-8). The class given is cell-based. The settings on record: Homo sapiens, TMD8; TMD-8 cells, 24 h. A digest of the protocol: (§1)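 Compounds tested from 15 μM to 58.6 nM (twofold, 9 concentrations) on 100,000 cells per well over 24 h at 37° C, without beta-mercaptoethanol. Secreted cytokine in supernatant detected by MSD electrochemiluminescence; scaling used DMSO as maximum and RN486 as full inhibition.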

Test [2] deals with IL10 secretion by TMD8 ABC-DLBCL cells. In words: Human IL10 Mesoscale assay (TMD-8). The note with it: Homo sapiens, TMD8; TMD-8 cells, 24 h. The class given is cell-based. Summed up:
as §1

Test [3] concerns the target full-length MALT1 protein (Strep-MALT1(1-824)-His) (Homo sapiens (Human), UniProt Q9UDY8). In words: MALT1 Biochemical Protease Assay (Ac-LRSR-AMC substrate). The settings on record: 10 nM FL MALT1, 200 μM Ac-LRSR-AMC, 4 h at RT; read-out: MALT1_Biochemical activity (Ac-LRSR-amc) IC50. Summed up:
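Fluorescence from AMC release off the quenched LRSR substrate was read after a 4 h reaction at RT. Values were normalised to no-enzyme and uninhibited controls and fitted for IC50 and Hill coefficient.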

The test system of test [4] is IL10 secretion by OCI-LY3 ABC-DLBCL cells. Put plainly: Human IL10 Mesoscale assay (OCI-LY3). The class given is cell-based. The note with it: 24 h. A digest of the protocol: as §1
Test [5] deals with IL6 secretion by OCI-LY3 ABC-DLBCL cells. In words: Human IL6 Mesoscale assay (OCI-LY3). The format is cell-based. The settings on record: 24 h. Summed up:
as §1

As usually defined, the IC50 is the concentration at which inhibition is half-maximal.

Sequence of full-length MALT1 protein (Strep-MALT1(1-824)-His) (Q9UDY8 whole entry): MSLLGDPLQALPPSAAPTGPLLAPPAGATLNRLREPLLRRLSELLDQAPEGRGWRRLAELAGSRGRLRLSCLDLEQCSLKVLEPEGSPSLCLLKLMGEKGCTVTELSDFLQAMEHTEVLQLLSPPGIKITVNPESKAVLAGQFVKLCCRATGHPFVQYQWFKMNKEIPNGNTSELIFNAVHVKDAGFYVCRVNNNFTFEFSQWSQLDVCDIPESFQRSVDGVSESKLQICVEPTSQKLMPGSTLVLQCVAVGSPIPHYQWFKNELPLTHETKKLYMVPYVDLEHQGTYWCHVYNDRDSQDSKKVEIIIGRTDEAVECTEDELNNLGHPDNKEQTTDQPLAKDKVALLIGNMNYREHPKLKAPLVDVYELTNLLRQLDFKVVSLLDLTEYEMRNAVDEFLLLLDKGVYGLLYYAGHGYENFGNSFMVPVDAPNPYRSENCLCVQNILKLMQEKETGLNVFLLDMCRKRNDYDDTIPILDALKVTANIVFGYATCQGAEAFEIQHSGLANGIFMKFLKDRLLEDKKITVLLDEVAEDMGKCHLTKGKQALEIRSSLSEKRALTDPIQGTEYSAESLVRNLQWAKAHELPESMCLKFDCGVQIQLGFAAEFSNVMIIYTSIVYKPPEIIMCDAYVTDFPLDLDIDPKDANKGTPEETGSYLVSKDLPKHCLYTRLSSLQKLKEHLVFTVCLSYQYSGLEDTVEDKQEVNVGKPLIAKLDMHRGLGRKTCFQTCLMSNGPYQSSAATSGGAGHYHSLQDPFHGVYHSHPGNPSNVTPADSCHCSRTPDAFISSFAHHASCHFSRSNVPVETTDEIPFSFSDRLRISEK

With `C[C@@H](O)c1nccc2c(-n3ncc(C(=O)Nc4cnc(-n5nccn5)c(Cl)c4)c3C(F)(F)F)cccc12` (single isomer, unassigned) [Cpd 444, (*R)—N-(5-chloro-6-(2H-1,2,3-triazol-2-yl)pyridin-3-yl)-1-(1-(1-hydroxyethyl)isoquinolin-5-yl)-5-(trifluoromethyl)-1H-pyrazole-4-carboxamide], the IC50 in test [1] was 107 nM; in test [2], 63 nM; in test [3], 58 nM; in test [4] (Homo sapiens), 27 nM; in test [5] (Homo sapiens), 39 nM.

Take `N#Cc1cc(NC(=O)c2cnn(-c3cnc4ccccn34)c2C(F)(F)F)cnc1-n1nccn1` [Cpd 189, N-(5-cyano-6-(2H-1,2,3-triazol-2-yl)pyridin-3-yl)-1-(imidazo[1,2-a]pyridin-3-yl)-5-(trifluoromethyl)-1H-pyrazole-4-carboxamide]: the IC50 was 107 nM in test [1]; 63 nM in test [2]; 78 nM in test [3]; 27 nM in test [4] (Homo sapiens); 39 nM in test [5] (Homo sapiens).

For the compound `N#Cc1cc(-n2ncc(C(=O)Nc3cnc(-n4nccn4)c(Cl)c3)c2C(F)(F)F)c2ccccc2n1` [Cpd 412, N-(5-chloro-6-(2H-1,2,3-triazol-2-yl)pyridin-3-yl)-1-(2-cyanoquinolin-4-yl)-5-(trifluoromethyl)-1H-pyrazole-4-carboxamide], the figures for the IC50 in test [3], in test [4] (Homo sapiens) and in test [5] (Homo sapiens) were 22 nM, 912 nM and 1780 nM, respectively.

As to `COc1cc(-n2ncc(C(=O)Nc3cnc(-n4nccn4)c(Cl)c3)c2C(F)(F)F)c2ccccc2n1` [Cpd 417, N-(5-chloro-6-(2H-1,2,3-triazol-2-yl)pyridin-3-yl)-1-(2-methoxyquinolin-4-yl)-5-(trifluoromethyl)-1H-pyrazole-4-carboxamide], the IC50 in test [3] was determined as 174 nM; in test [4] (Homo sapiens) it was 309 nM; in test [5] (Homo sapiens), 437 nM.

Turning to `COc1ccc2c(-n3ncc(C(=O)Nc4cnc(-n5nccn5)c(Cl)c4)c3C(F)(F)F)cccc2n1` [Cpd 420, N-(5-chloro-6-(2H-1,2,3-triazol-2-yl)pyridin-3-yl)-1-(2-methoxyquinolin-5-yl)-5-(trifluoromethyl)-1H-pyrazole-4-carboxamide], the IC50 in test [3] came out at 10 nM; in test [4] (Homo sapiens), 339 nM; in test [5] (Homo sapiens), 447 nM.

As to `COc1ncc(-n2ncc(C(=O)Nc3cnc(-n4nccn4)c(Cl)c3)c2C(F)(F)F)c2ccccc12` [Cpd 421, N-(5-chloro-6-(2H-1,2,3-triazol-2-yl)pyridin-3-yl)-1-(1-methoxyisoquinolin-4-yl)-5-(trifluoromethyl)-1H-pyrazole-4-carboxamide], the values for the IC50 in test [3], in test [4] (Homo sapiens) and in test [5] (Homo sapiens) were 20 nM, 479 nM and 457 nM, respectively.

On to `CCOc1ncc(-n2ncc(C(=O)Nc3cnc(-n4nccn4)c(Cl)c3)c2C(F)(F)F)c2ccccc12` [Cpd 422, N-(5-chloro-6-(2H-1,2,3-triazol-2-yl)pyridin-3-yl)-1-(1-ethoxyisoquinolin-4-yl)-5-(trifluoromethyl)-1H-pyrazole-4-carboxamide], for which the IC50 in test [3] came out at 11 nM; in test [4] (Homo sapiens), 174 nM; in test [5] (Homo sapiens), 191 nM.

As for `Cn1cc(-n2ncc(C(=O)Nc3cnc(-n4nccn4)c(Cl)c3)c2C(F)(F)F)c2ccccc2c1=O` [Cpd 423, N-(5-chloro-6-(2H-1,2,3-triazol-2-yl)pyridin-3-yl)-1-(2-methyl-1-oxo-1,2-dihydroisoquinolin-4-yl)-5-(trifluoromethyl)-1H-pyrazole-4-carboxamide], the results for the IC50 in test [3], in test [4] (Homo sapiens) and in test [5] (Homo sapiens) were 54 nM, 44 nM and 123 nM, respectively.

`O=C(Nc1cnc(-n2nccn2)c(Cl)c1)c1cnn(-c2cnc(Cl)c3sccc23)c1C(F)(F)F` [Cpd 424, N-(5-chloro-6-(2H-1,2,3-triazol-2-yl)pyridin-3-yl)-1-(7-chlorothieno[2,3-c]pyridin-4-yl)-5-(trifluoromethyl)-1H-pyrazole-4-carboxamide]: the IC50 in test [3] amounted to 72 nM; in test [4] (Homo sapiens) it was 182 nM; in test [5] (Homo sapiens), 166 nM.

Consider `O=C(Nc1cnc(-n2nccn2)c(Cl)c1)c1cnn(-c2cnc(N3CC[C@@H](O)C3)c3ccccc23)c1C(F)(F)F` [Cpd 427, (R)—N-(5-chloro-6-(2H-1,2,3-triazol-2-yl)pyridin-3-yl)-1-(1-(3-hydroxypyrrolidin-1-yl)isoquinolin-4-yl)-5-(trifluoromethyl)-1H-pyrazole-4-carboxamide], for which the IC50 was found to be 9 nM in test [3], 158 nM in test [4] (Homo sapiens) and 204 nM in test [5] (Homo sapiens).

Take `CSc1ncc(-n2ncc(C(=O)Nc3cnc(-n4nccn4)c(Cl)c3)c2C(F)(F)F)c2ccccc12` [Cpd 429, N-(5-chloro-6-(2H-1,2,3-triazol-2-yl)pyridin-3-yl)-1-(1-(methylthio)isoquinolin-4-yl)-5-(trifluoromethyl)-1H-pyrazole-4-carboxamide]: the IC50 in test [3] worked out at 30 nM; in test [4] (Homo sapiens), 112 nM; in test [5] (Homo sapiens), 251 nM.

On to `O=C(Nc1cnc(-n2nccn2)c(Cl)c1)c1cnn(-c2cnc(N3CC[C@H](O)C3)c3sccc23)c1C(F)(F)F` [Cpd 431, (S)—N-(5-chloro-6-(2H-1,2,3-triazol-2-yl)pyridin-3-yl)-1-(7-(3-hydroxypyrrolidin-1-yl)thieno[2,3-c]pyridin-4-yl)-5-(trifluoromethyl)-1H-pyrazole-4-carboxamide], for which the IC50 in test [3] is 17 nM; in test [4] (Homo sapiens), 95 nM; in test [5] (Homo sapiens), 117 nM.

`Cc1nc(-n2nccn2)c(Cl)cc1NC(=O)c1cnn(-c2cnc(N3CC(O)C3)c3sccc23)c1C(F)(F)F` [Cpd 433, N-(5-chloro-2-methyl-6-(2H-1,2,3-triazol-2-yl)pyridin-3-yl)-1-(7-(3-hydroxyazetidin-1-yl)thieno[2,3-c]pyridin-4-yl)-5-(trifluoromethyl)-1H-pyrazole-4-carboxamide]: the IC50 in test [3] amounted to 170 nM; in test [4] (Homo sapiens), 427 nM; in test [5] (Homo sapiens) it was 589 nM.

In the case of `Cc1ncc(-n2ncc(C(=O)Nc3cnc(-n4nccn4)c(Cl)c3)c2C(F)(F)F)c2ccsc12` [Cpd 434, N-(5-chloro-6-(2H-1,2,3-triazol-2-yl)pyridin-3-yl)-1-(7-methylthieno[2,3-c]pyridin-4-yl)-5-(trifluoromethyl)-1H-pyrazole-4-carboxamide], the 50% inhibitory concentration (IC50) in test [3] turned out to be 214 nM; in test [4] (Homo sapiens) it was 174 nM; in test [5] (Homo sapiens) it was 288 nM.

`O=C(Nc1cnc(-n2nccn2)c(Cl)c1)c1cnn(-c2cnc(C3CC3)c3sccc23)c1C(F)(F)F` [Cpd 435, N-(5-chloro-6-(2H-1,2,3-triazol-2-yl)pyridin-3-yl)-1-(7-cyclopropylthieno[2,3-c]pyridin-4-yl)-5-(trifluoromethyl)-1H-pyrazole-4-carboxamide]: the IC50 in test [3] worked out at 170 nM; in test [4] (Homo sapiens), 81 nM; in test [5] (Homo sapiens), 79 nM.

“N-(5-cyano-6-(2H-1,2,3-triazol-2-yl)pyridin-3-yl)-1-(imidazo[1,2-a]pyrazin-5-yl)-3-(trifluoromethyl)-1H-pyrazole-4-carboxamide [Cpd 275]”: the IC50 was 138 nM in test [3], 234 nM in test [4] and 240 nM in test [5].
